Reference: paper PMC10174618, “Monoterpenoid aryl hydrocarbon receptor allosteric antagonists protect against ultraviolet skin damage in female mice” (Nature Communications, 2023)

How the values were obtained:
Assay in all cases: biochemical
Design in all cases: KINOMEscan scanMAX active site-directed competition binding assay, percent of control, 468 kinases
Conditions in all cases: competition binding, percent of control
[1] = biological target: TLK2 (Homo sapiens, UniProt Q86UE8)
In short: (§1)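 Single-concentration screen (100 μM S-carvone) in a competition binding panel of 468 human kinases (KINOMEscan scanMAX); results given as percent of control, hit cutoff 35%.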

[2] = biological target: IGF1R (Homo sapiens, UniProt P08069)
In short: as §1

[3] = biological target: WEE1 (Homo sapiens, UniProt P30291)
In short: as §1

[4] = biological target: NEK7 (Homo sapiens, UniProt Q8TDX7)
In short: as §1

[5] = biological target: EPHB4 (Homo sapiens, UniProt P54760)
In short: as §1

[6] = biological target: T1, RSK3(Kin.Dom.1-N-terminal) (Homo sapiens, UniProt Q15349)
T1 construct: gene RPS6KA2; Kin.Dom.1-N-terminal
In short: as §1

[7] = biological target: HIPK3 (Homo sapiens, UniProt Q9H422)
In short: as §1

[8] = biological target: ULK1 (Homo sapiens, UniProt O75385)
In short: as §1

[9] = biological target: T2, RSK1(Kin.Dom.2-C-terminal) (Homo sapiens, UniProt Q15418)
T2 construct: gene RPS6KA1; Kin.Dom.2-C-terminal
In short: as §1

[10] = biological target: ALK(C1156Y) (Homo sapiens, UniProt Q9UM73, C1156Y)
In short: as §1

[11] = biological target: T3, CDK11 (Homo sapiens, UniProt Q9BWU1)
T3 construct: gene CDK19
In short: as §1

[12] = biological target: EPHA8 (Homo sapiens, UniProt P29322)
In short: as §1

[13] = biological target: T4, CDK4-cyclinD1 (Homo sapiens, UniProt P11802)
T4 construct: cyclinD1
In short: as §1

[14] = biological target: LRRK2(G2019S) (Homo sapiens, UniProt Q5S007, G2019S)
In short: as §1

[15] = biological target: CSNK1D (Homo sapiens, UniProt P48730)
In short: as §1

T3 sequence (Q9BWU1 whole entry): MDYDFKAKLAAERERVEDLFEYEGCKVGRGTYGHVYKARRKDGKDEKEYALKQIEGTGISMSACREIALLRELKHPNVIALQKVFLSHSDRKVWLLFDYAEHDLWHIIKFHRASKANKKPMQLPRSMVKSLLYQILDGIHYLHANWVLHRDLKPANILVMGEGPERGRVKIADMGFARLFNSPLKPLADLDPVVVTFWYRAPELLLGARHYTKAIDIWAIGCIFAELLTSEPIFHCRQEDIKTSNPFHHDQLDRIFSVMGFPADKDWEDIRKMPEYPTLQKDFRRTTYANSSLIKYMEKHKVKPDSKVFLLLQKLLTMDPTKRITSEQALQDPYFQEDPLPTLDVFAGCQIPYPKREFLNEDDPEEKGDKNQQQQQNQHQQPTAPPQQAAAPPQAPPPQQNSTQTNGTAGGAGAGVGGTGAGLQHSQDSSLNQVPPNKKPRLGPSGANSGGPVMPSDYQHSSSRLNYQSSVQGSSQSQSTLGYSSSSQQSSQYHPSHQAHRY
T2 sequence (Q15418 whole entry): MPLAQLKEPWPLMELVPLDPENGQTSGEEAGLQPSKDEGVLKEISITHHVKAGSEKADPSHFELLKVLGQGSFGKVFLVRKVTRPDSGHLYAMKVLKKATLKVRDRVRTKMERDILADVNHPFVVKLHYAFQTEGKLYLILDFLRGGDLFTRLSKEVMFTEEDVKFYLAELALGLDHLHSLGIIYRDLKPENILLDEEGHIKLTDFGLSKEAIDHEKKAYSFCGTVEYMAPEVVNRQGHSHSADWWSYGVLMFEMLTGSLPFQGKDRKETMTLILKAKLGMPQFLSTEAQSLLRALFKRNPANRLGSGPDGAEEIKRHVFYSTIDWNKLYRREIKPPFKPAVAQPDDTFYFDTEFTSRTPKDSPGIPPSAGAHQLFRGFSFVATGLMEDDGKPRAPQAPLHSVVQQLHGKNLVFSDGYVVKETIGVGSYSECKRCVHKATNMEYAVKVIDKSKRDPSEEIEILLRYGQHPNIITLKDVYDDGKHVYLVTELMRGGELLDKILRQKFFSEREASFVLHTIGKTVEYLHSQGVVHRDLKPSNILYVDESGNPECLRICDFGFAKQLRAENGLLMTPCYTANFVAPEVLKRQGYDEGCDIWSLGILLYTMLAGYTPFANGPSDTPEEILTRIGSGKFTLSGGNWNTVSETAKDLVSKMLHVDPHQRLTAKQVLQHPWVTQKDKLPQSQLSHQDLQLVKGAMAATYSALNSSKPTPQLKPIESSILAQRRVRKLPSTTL
T1 sequence (Q15349 whole entry): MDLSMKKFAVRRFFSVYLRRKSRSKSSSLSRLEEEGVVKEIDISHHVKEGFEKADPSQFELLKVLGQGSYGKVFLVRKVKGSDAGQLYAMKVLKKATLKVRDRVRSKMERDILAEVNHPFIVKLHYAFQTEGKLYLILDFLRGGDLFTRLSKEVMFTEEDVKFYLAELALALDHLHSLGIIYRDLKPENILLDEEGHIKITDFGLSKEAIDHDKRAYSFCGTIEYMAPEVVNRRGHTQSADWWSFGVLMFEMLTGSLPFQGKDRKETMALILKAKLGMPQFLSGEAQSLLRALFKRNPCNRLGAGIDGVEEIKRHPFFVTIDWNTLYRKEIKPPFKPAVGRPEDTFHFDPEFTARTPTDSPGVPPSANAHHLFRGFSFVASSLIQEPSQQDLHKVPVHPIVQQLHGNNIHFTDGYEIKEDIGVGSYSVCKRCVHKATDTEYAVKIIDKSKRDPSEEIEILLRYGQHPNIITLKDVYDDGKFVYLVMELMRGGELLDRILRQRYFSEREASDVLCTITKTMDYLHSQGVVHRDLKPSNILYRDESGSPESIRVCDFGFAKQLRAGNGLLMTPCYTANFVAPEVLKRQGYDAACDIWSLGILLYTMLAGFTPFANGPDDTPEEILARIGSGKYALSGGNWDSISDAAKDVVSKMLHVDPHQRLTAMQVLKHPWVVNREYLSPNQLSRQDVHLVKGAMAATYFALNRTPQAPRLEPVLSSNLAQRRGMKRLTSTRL
Sequence of HIPK3 (Q9H422 whole entry): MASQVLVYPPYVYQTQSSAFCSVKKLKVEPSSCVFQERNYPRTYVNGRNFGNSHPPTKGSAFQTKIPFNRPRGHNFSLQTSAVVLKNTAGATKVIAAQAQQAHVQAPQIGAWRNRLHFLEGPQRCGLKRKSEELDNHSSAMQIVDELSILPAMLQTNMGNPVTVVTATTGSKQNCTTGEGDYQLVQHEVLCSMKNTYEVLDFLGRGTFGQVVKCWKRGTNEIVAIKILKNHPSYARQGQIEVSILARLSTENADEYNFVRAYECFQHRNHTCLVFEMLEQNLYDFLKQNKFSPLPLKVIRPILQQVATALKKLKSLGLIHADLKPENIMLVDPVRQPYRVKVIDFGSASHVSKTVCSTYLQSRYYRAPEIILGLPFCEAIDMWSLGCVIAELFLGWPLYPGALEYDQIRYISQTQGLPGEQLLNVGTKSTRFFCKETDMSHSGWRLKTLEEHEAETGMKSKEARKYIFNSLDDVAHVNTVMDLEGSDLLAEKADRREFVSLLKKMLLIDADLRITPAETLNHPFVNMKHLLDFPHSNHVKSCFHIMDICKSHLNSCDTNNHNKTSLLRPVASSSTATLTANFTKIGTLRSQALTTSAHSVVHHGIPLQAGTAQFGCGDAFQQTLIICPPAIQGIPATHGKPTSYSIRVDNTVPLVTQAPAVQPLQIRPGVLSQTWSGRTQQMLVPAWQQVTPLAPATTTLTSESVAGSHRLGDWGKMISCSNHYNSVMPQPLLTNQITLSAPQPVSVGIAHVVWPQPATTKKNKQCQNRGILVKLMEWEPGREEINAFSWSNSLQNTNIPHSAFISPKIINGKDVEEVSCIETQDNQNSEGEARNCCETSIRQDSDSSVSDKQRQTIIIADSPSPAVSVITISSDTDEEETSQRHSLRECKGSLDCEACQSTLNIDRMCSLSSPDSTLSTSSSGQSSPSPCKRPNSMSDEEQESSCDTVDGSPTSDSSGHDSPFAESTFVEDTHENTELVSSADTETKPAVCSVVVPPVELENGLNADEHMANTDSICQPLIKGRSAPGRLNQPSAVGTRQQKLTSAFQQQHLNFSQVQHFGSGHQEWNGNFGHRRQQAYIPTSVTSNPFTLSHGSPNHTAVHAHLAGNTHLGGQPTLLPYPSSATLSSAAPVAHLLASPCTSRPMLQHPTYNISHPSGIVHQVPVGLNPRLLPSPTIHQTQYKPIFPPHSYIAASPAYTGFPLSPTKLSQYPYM
Sequence of WEE1 (P30291 whole entry): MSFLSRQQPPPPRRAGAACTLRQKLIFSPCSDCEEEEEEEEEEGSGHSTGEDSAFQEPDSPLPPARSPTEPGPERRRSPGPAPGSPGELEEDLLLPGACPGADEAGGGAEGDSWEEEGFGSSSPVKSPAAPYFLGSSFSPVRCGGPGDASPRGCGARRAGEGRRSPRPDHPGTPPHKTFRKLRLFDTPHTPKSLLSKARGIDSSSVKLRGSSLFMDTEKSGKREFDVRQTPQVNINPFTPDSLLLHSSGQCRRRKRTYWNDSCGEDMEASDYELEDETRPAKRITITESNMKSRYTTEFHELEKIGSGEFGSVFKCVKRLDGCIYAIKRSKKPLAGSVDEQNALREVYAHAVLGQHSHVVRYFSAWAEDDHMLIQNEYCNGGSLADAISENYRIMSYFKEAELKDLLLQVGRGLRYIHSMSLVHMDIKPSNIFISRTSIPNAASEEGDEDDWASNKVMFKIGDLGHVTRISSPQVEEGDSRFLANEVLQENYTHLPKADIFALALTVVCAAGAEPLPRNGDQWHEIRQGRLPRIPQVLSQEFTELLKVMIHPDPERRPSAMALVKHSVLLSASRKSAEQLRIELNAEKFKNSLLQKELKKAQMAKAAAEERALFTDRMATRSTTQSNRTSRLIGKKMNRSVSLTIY
Sequence of TLK2 (Q86UE8 whole entry): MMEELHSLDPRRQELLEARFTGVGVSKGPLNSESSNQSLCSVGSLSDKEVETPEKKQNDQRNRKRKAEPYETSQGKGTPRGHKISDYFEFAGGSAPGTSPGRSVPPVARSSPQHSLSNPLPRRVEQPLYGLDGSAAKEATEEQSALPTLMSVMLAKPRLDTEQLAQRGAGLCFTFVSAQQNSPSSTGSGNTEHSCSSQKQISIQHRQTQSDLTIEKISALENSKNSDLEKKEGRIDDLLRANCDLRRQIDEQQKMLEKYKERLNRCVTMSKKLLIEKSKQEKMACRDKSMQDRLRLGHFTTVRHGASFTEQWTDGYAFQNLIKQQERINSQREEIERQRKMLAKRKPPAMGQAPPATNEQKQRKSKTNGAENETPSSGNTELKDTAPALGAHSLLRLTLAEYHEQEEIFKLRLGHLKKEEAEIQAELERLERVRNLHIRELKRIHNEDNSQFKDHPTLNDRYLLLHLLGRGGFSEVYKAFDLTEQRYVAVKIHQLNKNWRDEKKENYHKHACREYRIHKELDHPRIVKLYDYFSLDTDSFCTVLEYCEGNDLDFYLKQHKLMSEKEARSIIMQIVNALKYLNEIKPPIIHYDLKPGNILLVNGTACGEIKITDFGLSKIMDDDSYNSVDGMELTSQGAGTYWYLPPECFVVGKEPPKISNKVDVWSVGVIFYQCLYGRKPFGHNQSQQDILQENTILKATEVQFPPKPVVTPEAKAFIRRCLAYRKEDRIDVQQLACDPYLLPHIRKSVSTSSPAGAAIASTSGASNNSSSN
Sequence of NEK7 (Q8TDX7 whole entry): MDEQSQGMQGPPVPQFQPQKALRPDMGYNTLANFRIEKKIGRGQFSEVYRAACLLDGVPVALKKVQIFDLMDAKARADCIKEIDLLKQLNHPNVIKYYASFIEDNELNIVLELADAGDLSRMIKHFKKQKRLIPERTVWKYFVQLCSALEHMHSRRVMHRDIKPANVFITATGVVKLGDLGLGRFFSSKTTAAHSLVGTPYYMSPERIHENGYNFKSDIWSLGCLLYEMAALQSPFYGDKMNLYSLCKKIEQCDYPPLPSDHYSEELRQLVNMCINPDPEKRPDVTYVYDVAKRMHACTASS

For `C=C(C)[C@H]1CC=C(C)C(=O)C1` [S-carvone], the remaining binding at 100 µM [1] was 94%, the remaining binding at 100 µM [2] was 82% and the remaining binding at 100 µM [3] was 81%. For the same molecule, the remaining binding at 100 µM [4] was 74%, the remaining binding at 100 µM [5] was 68% and the remaining binding at 100 µM [6] was 94%. The remaining binding at 100 µM [7] was 51%, the remaining binding at 100 µM [8] was 100% and the remaining binding at 100 µM [9] was 54%. It also gave a remaining binding at 100 µM [10] of 70%, a remaining binding at 100 µM [11] of 98% and a remaining binding at 100 µM [12] of 91%. It also gave a remaining binding at 100 µM [13] of 73%, a remaining binding at 100 µM [14] of 81% and a remaining binding at 100 µM [15] of 68%.
